According to PMC6332165, “Study of the Relationships between the Structure, Lipophilicity and Biological Activity of Some Thiazolyl-carbonyl-thiosemicarbazides and Thiazolyl-azoles” (Molecules, 2015):

Experiments:
[1] = Lipophilicity by reversed-phase thin-layer chromatography (RP-TLC), isopropanol-water mobile phase; assay type: physicochemical; conditions: RP-18F254s TLC, iso-propanol-water 45-65% (v/v); for RM0 (lipophilicity estimation parameter, intercept of RM = RM0 + bC): extrapolated to pure water
Protocol: Some of the parameters resulting from a RP-TLC may be associated to the lipophilic character of the analytes. The retention parameters (RM) are calculated by means of well-known Batte-Smith and Westall Equation (1): RM = log (1/RF − 1) (1)
Generally, the RM values determined by RP-TLC are linearly dependent on the concentration of the organic modifier (C) in the mobile phase Equation (2): RM = RM0 + bC (2) where b and RM0 are, respectively, the slope and the intercept of Equation (2). […] Additionally, it has been stated that not only the RM0, but also the slope, b, as a characteristic of the specific hydrophobic surface area of the compounds, can be used as an estimation of lipophilicity. The advantages of TLC methods consist in the small quantity of compounds needed for the determination, and the rapidity and simplicity of the method. Also, they are inexpensive, rapid and easy to perform.
Chromatography was performed on 20 × 20 cm RP-18F254s TLC precoated silica plates (Merck; Darmstadt, Germany). Solutions (1 mg/mL) of the tested compounds were prepared in iso-propanol, and 3 μL aliquots were spotted in duplicate on the plates by hand, 10 mm from the bottom edge and 20 mm apart. The mobile phases were composed of the iso-propanol-water binary mixtures, with a varying content of organic modifier between 45% and 65% (v/v) in 5% increments, as the study compounds differed considerably in their retention. Chromatography was performed in a normal developing chamber at room temperature, the developing distance being 10 cm. The chromatography chamber was saturated with the mobile phase for 30 min before use. After the development (30–60 min), the plates were air dried at room temperature and examined under a UV lamp (λ = 254 nm), and the RF (retardation factor) values were measured manually by a digital caliper. The experiments were performed in triplicate.

[2] = system: turpentine oil-induced inflammation; parameters: method as in PMID 23504664; Leukocytes (L, leukocytes count):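 lower leukocyte count means stronger anti-inflammatory effect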; conditions: mean ± SD; cited from earlier work
phagocytes = system: phagocytes; parameters: method as in PMID 23504664; conditions: turpentine oil-induced inflammation, mean ± SD; cited from earlier work
[3] = system: nitric oxide (NO) synthesis; parameters: method as in PMID 23504664; unit not given here; conditions: turpentine oil-induced inflammation, mean ± SD; cited from earlier work
oxidative stress = system: oxidative stress; parameters: method as in PMID 23504664; conditions: turpentine oil-induced inflammation, mean ± SD; cited from earlier work

Structure (SMILES)	b (slope of RM = RM0 + bC, specific hydrophobic surface area) [1]	RM0 (lipophilicity estimation parameter, intercept of RM = RM0 + bC) [1]	Leukocytes (L, leukocytes count) [2]	PMN (polymorphonuclear leukocytes, differential leucocyte count) [2] [%]	PA (phagocytic activity) (phagocytes)	PI (phagocytosis index) (phagocytes) [%]	NO (nitric oxide synthesis) [3]	OSI (oxidative stress index) (oxidative stress)	TAR (total antioxidant response) (oxidative stress)	TOS (total oxidative status) (oxidative stress)
Cc1nc(-c2ccc(Br)cc2)sc1C(=O)NNC(=S)Nc1ccccc1 [Th-3]	−2.739	1.600	4987 ± 133	63.6 ± 3.9	31 ± 1.8	21.5 ± 0.9	52.838 ± 8.9	3.62 ± 2.9	1.095 ± 0.003	39.601 ± 7.9
Cc1nc(-c2ccc(Br)cc2)sc1-c1nnc(S)n1C [Th-14]	−2.659	1.630	10,172 ± 520	75.4 ± 4.5	23.5 ± 0.9	28 ± 2.1	86.04 ± 2.9	6.1 ± 4.7	1.097 ± 0.006	66.876 ± 9.7
C=CCNC(=S)NNC(=O)c1sc(-c2ccccc2)nc1C [Th-7]	−2.484	1.195	6356.25 ± 66	73.2 ± 4.0	53.5 ± 3.5	20.5 ± 0.9	54.355 ± 6.2	3.98 ± 3.8	1.107 ± 0.003	44.073 ± 3.8
Cc1nc(-c2ccccc2)sc1C(=O)NNC(=S)Nc1ccccc1 [Th-1]	−2.627	1.369	5587.5 ± 455	60.4 ± 4.1	18.5 ± 1.8	21.5 ± 4.6	50.479 ± 5.7	4.66 ± 2.2	1.108 ± 0.003	51.622 ± 6.2
Cc1ccc(-c2nc(C)c(-c3nnc(S)n3C)s2)cc1 [Th-13]	−2.672	1.565	10,172 ± 331	80.8 ± 3.0	27.5 ± 0.9	25.5 ± 2.8	75.451 ± 6.9	4.63 ± 3.6	1.1 ± 0.012	50.886 ± 5.6
Cc1nc(-c2ccccc2)sc1-c1nnc(S)n1C [Th-12]	−2.463	1.305	8456.25 ± 565	78.6 ± 1.0	20 ± 1.5	22.5 ± 3.5	70.029 ± 6.4	8.27 ± 4.2	1.095 ± 0.004	90.592 ± 4.2
Cc1ccc(-c2nc(C)c(C(=O)NNC(=S)Nc3ccccc3)s2)cc1 [Th-2]	−2.853	1.595	6543 ± 271	60.6 ± 3.1	22.5 ± 2.8	21.5 ± 2.8	51.827 ± 6.3	5.76 ± 5.3	1.099 ± 0.003	63.265 ± 5.4
CNC(=S)NNC(=O)c1sc(-c2ccc(C)cc2)nc1C [Th-5]	−2.502	1.161	11,633.3 ± 154	59.8 ± 3.6	22.5 ± 0.9	19.5 ± 2.3	47.024 ± 8.9	4.7 ± 3.1	1.096 ± 0.001	51.557 ± 17.1
C=CCn1c(S)nnc1-c1sc(-c2ccc(C)cc2)nc1C [Th-16]	−2.962	1.783	9225 ± 333	77.4 ± 1.9	27 ± 1.1	21.2 ± 1.0	63.091 ± 5.1	6.04 ± 4.1	1.103 ± 0.009	66.681 ± 9.1
Cc1ccc(-c2nc(C)c(-c3nnc(S)n3-c3ccccc3)s2)cc1 [Th-10]	−2.948	1.754	5606.25 ± 154	61.2 ± 3.4	23 ± 1.1	20.5 ± 0.9	65.142 ± 5.3	4.95 ± 5.4	1.095 ± 0.003	54.164 ± 5.4
Cc1ccc(-c2nc(C)c(-c3nnc(S)o3)s2)cc1 [Th-19]	−1.134	0.286	7443.75 ± 1172	72.8 ± 5.0	13.5 ± 2.78	20 ± 1.5	45.198 ± 2.2	7.13 ± 5.9	1.119 ± 0.009	79.849 ± 12
CNC(=S)NNC(=O)c1sc(-c2ccc(Br)cc2)nc1C [Th-6]	−2.740	1.398	6056.25 ± 862	70.4 ± 2.9	18 ± 1.5	13 ± 3.2	50.591 ± 9.1	3.93 ± 2.6	1.097 ± 0.006	43.108 ± 5.6
